# Test results taken from article PMC9169222, “Impedance-Based Phenotypic Readout of Transporter Function: A Case for Glutamate Transporters” (Frontiers in Pharmacology, 2022).
# Where a name gives a salt, the structure may show the parent alone.
# Legend:
# [1] = target: T1, EAAT1 (JumpIn-EAAT1 cells) (Homo sapiens, UniProt P43003); assay: Impedance-based phenotypic assay (xCELLigence) on JumpIn-EAAT1 cells; assay type: cell-based; conditions: net AUC 0–120 min
# T1 construct: expressed in transfected cells; host or cells: Jump In T-REx HEK 293
# T1 sequence (P43003 whole entry): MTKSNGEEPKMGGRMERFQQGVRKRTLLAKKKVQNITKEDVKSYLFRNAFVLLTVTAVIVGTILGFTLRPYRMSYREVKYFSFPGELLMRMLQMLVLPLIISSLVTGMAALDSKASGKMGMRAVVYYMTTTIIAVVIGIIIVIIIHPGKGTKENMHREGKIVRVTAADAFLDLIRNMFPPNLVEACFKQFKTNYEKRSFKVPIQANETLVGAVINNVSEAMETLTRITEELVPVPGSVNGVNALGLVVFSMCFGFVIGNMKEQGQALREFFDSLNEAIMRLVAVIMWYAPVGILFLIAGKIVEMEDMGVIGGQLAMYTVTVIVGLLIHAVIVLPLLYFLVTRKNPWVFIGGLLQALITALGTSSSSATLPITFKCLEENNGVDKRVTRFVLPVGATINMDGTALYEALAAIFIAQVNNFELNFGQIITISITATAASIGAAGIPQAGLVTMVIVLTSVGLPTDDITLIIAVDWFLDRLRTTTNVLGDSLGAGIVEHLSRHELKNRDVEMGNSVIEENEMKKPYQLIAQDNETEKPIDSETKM
# Description: In short, cells are cultured in medium on gold-plated electrodes in microwell E-plates.
# Assays were performed at 37°C and 5% CO2 in 96-well PET E-plates in a total volume of 100 µl per well. Prior to cell seeding, the baseline impedance (Z0) was measured in the recording station in 40 µl (two compound additions) or 45 µl (one compound addition) medium in the presence (+) or absence (−) of 1 μg/ml dox. All compounds were diluted in phosphate-buffered saline (PBS) and added in 5 µl per addition using a VIAFLO 96 handheld electronic 96 channel pipette (INTEGRA Biosciences, Tokyo, Japan). When DMSO was used as a solvent for a compound, the final amount of DMSO was kept at 0.1% per well and was included in the vehicle (PBS/DMSO). All conditions were tested at two technical replicates per plate.
# Transiently transfected JumpIn-EAAT1 cells were detached using only PBS/EDTA. The E-plate was left to rest at room temperature for 30 min prior to replacement in the recording station at 37°C and 5% CO2. Cell growth was recorded overnight for 22 h. If a pretreatment was required for the experiment, the cells were pretreated after 22 h with either a concentration of inhibitor or vehicle (PBS/DMSO) and cells were monitored for 60 min. For GPCR antagonist experiments, a maximum concentration of LY341495 (1 µM) was used. […] After the pretreatment, cells were stimulated with substrate or vehicle (PBS). […] After stimulation the impedance was measured for at least 2 h. […] Properly washed plates were re-used up to two times.
# Experimental data was recorded using RTCA Software v2.0 or v2.1.1 (ACEA Biosciences). In the RTCA Software CI values were normalized to the time point prior to substrate/agonist stimulation resulting in normalized Cell Index (nCI) values. The nCI data were exported and subsequent analyses and data visualizations were done using GraphPad Prism v9 (GraphPad Software, San Diego, CA, United States). In all experiments, nCI values of vehicle-only conditions were subtracted from all other conditions to correct for vehicle-induced, substrate-independent effects. […] The potency values of substrates and inhibitory potencies of EAAT inhibitors were determined by fitting the net AUC data to a sigmoidal concentration-effect curve with a variable slope.
# [2] = target: T2, EAAT4 (JumpIn-EAAT4 cells) (Homo sapiens, UniProt P48664); assay: Impedance-based phenotypic assay on JumpIn-EAAT4 cells; assay type: cell-based; conditions: JumpIn-EAAT4, 1 mM L-glu, p = 0.093
# T2 construct: expressed in transfected cells; host or cells: Jump In T-REx HEK 293
# T2 sequence (P48664 1-564): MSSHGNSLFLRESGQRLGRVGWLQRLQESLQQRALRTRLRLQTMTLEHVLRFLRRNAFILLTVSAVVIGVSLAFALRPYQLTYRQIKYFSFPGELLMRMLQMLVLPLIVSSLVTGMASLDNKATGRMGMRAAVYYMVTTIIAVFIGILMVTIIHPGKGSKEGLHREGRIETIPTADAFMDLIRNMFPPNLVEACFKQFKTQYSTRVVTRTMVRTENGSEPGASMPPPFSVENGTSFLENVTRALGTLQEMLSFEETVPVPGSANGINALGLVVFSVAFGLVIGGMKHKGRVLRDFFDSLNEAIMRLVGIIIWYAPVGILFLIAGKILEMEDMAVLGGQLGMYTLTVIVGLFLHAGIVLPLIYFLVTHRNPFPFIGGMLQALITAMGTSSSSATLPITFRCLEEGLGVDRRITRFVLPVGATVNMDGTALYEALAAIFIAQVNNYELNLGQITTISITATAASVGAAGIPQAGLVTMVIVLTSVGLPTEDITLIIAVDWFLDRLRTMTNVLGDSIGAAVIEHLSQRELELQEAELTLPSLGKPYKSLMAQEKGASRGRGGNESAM
# Description: Label-free whole-cell assays, based on cell-induced changes in impedance, were performed using the xCELLigence real-time cell analyzer (RTCA) system (ACEA Biosciences, San Diego, CA, United States) as described previously ([Vlachodimou et al., 2019]; [Sijben et al., 2021a], [2021b]). In short, cells are cultured in medium on gold-plated electrodes in microwell E-plates. Per well impedance is continuously measured at 10 kHz and is converted to the unitless parameter Cell Index (CI) by the following formula: CI=(Zi−Z0)Ω/15Ω where Zi is the impedance at any given time point and Z0 is the baseline impedance measured at the start of each experiment ([Kho et al., 2015]).
# Assays were performed at 37°C and 5% CO2 in 96-well PET E-plates in a total volume of 100 µl per well. Prior to cell seeding, the baseline impedance (Z0) was measured in the recording station in 40 µl (two compound additions) or 45 µl (one compound addition) medium in the presence (+) or absence (−) of 1 μg/ml dox. […]
# On the day of the experiment, JumpIn-EAAT cells grown to 70–80% confluence were trypsinized (0.25% trypsin in PBS/EDTA), counted and seeded in the E-plate in a volume of 50 μl at 60,000 cells/well. […] Cell growth was recorded overnight for 22 h. […] After stimulation the impedance was measured for at least 2 h. […]
# Experimental data was recorded using RTCA Software v2.0 or v2.1.1 (ACEA Biosciences). […]
compound,measurement,setting,value
"N[C@@H](CCC(=O)O)C(=O)O [L-glutamate, L-glutamic acid monosodium salt monohydrate]",Substrate pEC50 ± SEM,"[1]; JumpIn-EAAT1, +dox",3.4 ± 0.0
same,EC50,"[1]; JumpIn-EAAT1, −dox, read-out: Substrate pEC50 ± SEM (converted)",63.1 µM
same,Response in dox-induced vs non-induced cells,[2],not significant
